Here are results for one compound from US20110214196A1, “DEVELOPMENT OF HERBICIDE-RESISTANT GRASS SPECIES” (University of Georgia Research Foundation, priority 2008, published 2011).

Experiment [1] concerns callus tissue generated from the variety 'Seaspray'. As to the kind of experiment: Callus growth dose response to sethoxydim. It counts as cell-based, seashore paspalum (Paspalum vaginatum). The following applies: growth averaged over three consecutive 3-week subcultures. The procedure: The dose response of paspalum tissue in culture to sethoxydim rate was determined using callus tissue generated from the variety ‘Seaspray’ as a model cultivar. Effect of sethoxydim concentration on callus growth was determined by placing callus tissue from ‘Seaspray’ on MS/B5 medium (Murashige and Skoog. 1962. supra; Gamborg et al. 1968. supra) containing 2 mg/L 2-4,D and one of eight concentrations of sethoxydim. Herbicide rates were replicated 6 times and included concentrations of 0, 2.5, 5, 7.5, 10, 25, 50, and 100 μM sethoxydim. Sethoxydim was diluted in methanol and added after the autoclaved medium was cooled to approximately 55° C. (in order to prevent loss of activity from heat degradation). The medium was protected from photo-degradation by wrapping containers in aluminum foil prior to storage.
To measure callus growth, 0.5 gram of callus tissue was weighed, separated into nine equal pieces and placed in a 3×3 pattern on the solid medium of each plate. Six replicate plates for each of the eight sethoxydim concentrations was distributed on a rack in a growth room in a completely randomized design. At 21 days after plating, the tissue from each plate was weighed and recorded. For subculture, 0.5 gram from each plate was obtained for the next growth period. This process was continued for nine weeks, providing three growth measurements for each plate. […]

Experiment [2] relates to original parental line, Mauna Kea (PT). As to the kind of experiment: Whole plant greenhouse dose-response, Poast herbicide (Example 9). It counts as in vivo, seashore paspalum (Paspalum vaginatum). From the text: (§1) A second greenhouse experiment was initiated to evaluate SR plants regenerated from a second sethoxydim-resistant cell line, Line B, for sethoxidim resistance at the whole plant level. In the previous experiment (Example 8), minor injury occurred on Line A at higher concentrations of Segment™ sethoxydim herbicide. These injury symptoms were more indicative of surfactant injury rather than sethoxydim injury. […] Plants were transplanted to Cone-tainers™ measuring 4×14 cm and tapering to 1 cm (Stuewe and Sons Inc., Corvallis, Oreg.) containing a 1:1 mix of Fafard® 3B mix and sand and placed on benches under sodium lights in a greenhouse with a 16-h photoperiod maintained at 27/32° C. day/night for approximately two weeks prior to application of herbicide treatments.
(§2) Each of the four genotypes (Line A, Line B, PT and TCC) were treated with 0, 50, 100, 200, 400, 800, 1600, 3200 and 6400 g ai ha^−1 rates of sethoxydim using Poast™ herbicide (BASF Corp., Florham Park, N.J.). All herbicide rates were applied at a spray volume of 1871 ha^−1 in an experimental spray chamber, and after drying, the plants were returned to the greenhouse bench and maintained under the conditions described above. Visual estimates of crop injury were recorded at 16, 21, and 28 d after treatment (DAT) using a scale of 0 to 100, where 0 equals no injury and 100 equals complete death. The experiment was a four by nine factorial with four genotypes and nine herbicide rates. Treatments were arranged in a randomized complete block design. Four replications were used for all four genotypes. Data were first analyzed using a two-way analysis of variance (SAS, 2008) and subsequently analyzed within herbicide rate. Differences among genotype means at each herbicide rate were determined using Fisher's Least Significant Difference (LSD).

Experiment [3] deals with sethoxydim-resistant Line A. The experiment is described as above. The format is in vivo, seashore paspalum (Paspalum vaginatum).
Text: as §1, §2

In experiment [4] the test system is Mauna Kea line regenerated from tissue culture (TCC). Described as above. As to conditions: for injury score: TCC. The format is in vivo, seashore paspalum (Paspalum vaginatum).
Text: as §1, §2

For experiment [5], the system named is sethoxydim-resistant Line B. The experiment is described as above. It counts as in vivo, seashore paspalum (Paspalum vaginatum).
Text: as §1, §2

The mark [6] stands for this setting: at rates of 400 g ai ha^−1, scale of 0 to 100.
[7] abbreviates: at rates of 1600 g ai ha^−1 or more.
Where [8] appears, read: all rates up to 6400 g ai ha^−1.

`CCC/C(=N\OCC)C1=C(O)CC(CC(C)SCC)CC1=O` (centres unmarked) [sethoxydim, 2-[1-(ethoxyimino)-butyl]-5-[2-(ethylthio)propyl]-3-hydroxy-2-cylohexen-1-one]: the “lowest herbicide rate to totally inhibit callus growth” value in experiment [1] worked out at 7.5 µM. The LD50 was 720 g ai ha^−1 in experiment [2], greater than 6400 g ai ha^−1 in experiment [3], 782 g ai ha^−1 in experiment [4] (TC) and greater than 6400 g ai ha^−1 in experiment [5]. The injury score was no less than 27 in experiment [2] (setting [6]), no less than 80% in experiment [2] (setting [7]), no less than 27 in experiment [4] (setting [6]) and no less than 80% in experiment [4] (setting [7]). In addition, the “maximum injury score observed” value in experiment [3] (setting [8]) and in experiment [5] (setting [8]) was “less than 20%” each time.
